Measured values reported in patent publication US7923438B2 (priority 2006, dated 2011).
Read-outs that look alike come from different tables or passages of the source.

Legend:
Assay type in all cases: cell-based
[1] = system: Mycobacterium smegmatis (FH 6498); assay: Serial dilution test for MIC, Mueller-Hinton broth
[2] = system: S. aureus (control strain); assay: Serial dilution test for MIC, Mueller-Hinton broth (control strain)
[3] = system: Mycobacterium phlei (ATCC 1298); assay: microbe, parasite or virus in culture
[4] = system: Nocardia brasiliensis (ATCC 19296); assay: microbe, parasite or virus in culture
[5] = system: Nocardia abscessus (BAA 279); assay: microbe, parasite or virus in culture
[6] = system: Corynebacterium diphtheriae (ATCC 27010); assay: microbe, parasite or virus in culture
[7] = serial dilution, 48 hours at 37° C., approximately 10 Ex 6 CFU/ml
[8] = 6.25 μg per disc (17 nmol per disc), 48 hrs at 37° C.

| SMILES | minimum inhibitory concentration (MIC), Mycobacterium smegmatis (FH 6498) [1] | minimum inhibitory concentration (MIC), S. aureus (control strain) [2] | Inhibition zone size, Mycobacterium phlei (ATCC 1298) [3] | Inhibition zone size, Nocardia brasiliensis (ATCC 19296) [4] | Inhibition zone size, Nocardia abscessus (BAA 279) [5] | Inhibition zone size, Corynebacterium diphtheriae (ATCC 27010) [6] | also measured |
| --- | --- | --- | --- | --- | --- | --- | --- |
| CCCCCCCCCCCCCCCCOP1(=O)OCC2COC(=O)C2=C(CCC)O1 (stereo not shown) [Cyclipostin T] |  |  |  |  |  |  | minimum inhibitory concentration (MIC), Mycobacterium smegmatis (FH 6498) [1, 7]: <0.5; minimum inhibitory concentration (MIC), S. aureus (control strain) [2, 7]: >64; zone of inhibition at 20 µg/disc ([3]; Mycolicibacterium phlei, ATCC1298, 20 μg per disc, 48 hrs at 37° C., read-out: Inhibition zone size, Mycobacterium phlei (ATCC 1298)): 30 mm; zone of inhibition at 20 µg/disc ([4]; Nocardia brasiliensis, ATCC19296, 20 μg per disc, 48 hrs at 37° C., read-out: Inhibition zone size, Nocardia brasiliensis (ATCC 19296)): 38 mm; zone of inhibition at 20 µg/disc ([5]; Nocardia abscessus, BAA279, 20 μg per disc, 48 hrs at 37° C., read-out: Inhibition zone size, Nocardia abscessus (BAA 279)): 9 mm; zone of inhibition at 20 µg/disc ([6]; Corynebacterium diphtheriae, ATCC27010, 20 μg per disc, 48 hrs at 37° C., read-out: Inhibition zone size, Corynebacterium diphtheriae (ATCC 27010)): 12 mm |
| CO[C@H]1/C=C/O[C@@]2(C)Oc3c(C)c(O)c4c(O)c(c(/C=N/N5CCN(C)CC5)c(O)c4c3C2=O)NC(=O)/C(C)=C\C=C\[C@H](C)[C@H](O)[C@@H](C)[C@@H](O)[C@@H](C)[C@H](OC(C)=O)[C@@H]1C [Rifampicin, reference compound] |  |  |  |  |  |  | zone of inhibition at 30 µg/disc ([3]; Mycolicibacterium phlei, ATCC1298, 30 μg per disc (36 nmol per disc), 48 hrs at 37° C., read-out: Inhibition zone size, Mycobacterium phlei (ATCC 1298)): 55 mm; zone of inhibition at 30 µg/disc ([4]; Nocardia brasiliensis, ATCC19296, 30 μg per disc (36 nmol per disc), 48 hrs at 37° C., read-out: Inhibition zone size, Nocardia brasiliensis (ATCC 19296)): 10 mm; zone of inhibition at 30 µg/disc ([5]; Nocardia abscessus, BAA279, 30 μg per disc (36 nmol per disc), 48 hrs at 37° C., read-out: Inhibition zone size, Nocardia abscessus (BAA 279)): 12 mm; zone of inhibition at 30 µg/disc ([6]; Corynebacterium diphtheriae, ATCC27010, 30 μg per disc (36 nmol per disc), 48 hrs at 37° C., read-out: Inhibition zone size, Corynebacterium diphtheriae (ATCC 27010)): 47 mm |
| CCCC1=C2C(=O)OC[C@@H]2COP(=O)(OCCCCCCCCCCCCCC(C)C)O1 (stereo partly shown) [Cyclipostin T2] | <0.5 | >64 | 47 mm | 39 mm | 10 mm | 20 mm |  |
| CCCCCCCCCCCCCCCOP1(=O)OC[C@H]2COC(=O)C2=C(C)O1 (stereo partly shown) [Cyclipostin R] | <0.5 | >64 |  |  |  |  |  |
| CCCCCCCCCCCCCCCCOP1(=O)OC[C@H]2COC(=O)C2=C(C)O1 (stereo partly shown) [Cyclipostin P] | <0.5 | >64 | 35 mm | 47 mm | 28 mm | 10 mm |  |
| CC1(C)S[C@@H]2[C@H](NC(=O)Cc3ccccc3)C(=O)N2[C@H]1C(=O)O [Penicillin G, reference compound] |  |  |  |  |  |  | Inhibition zone size, Mycobacterium phlei (ATCC 1298) [3, 8]: 0 mm; Inhibition zone size, Nocardia brasiliensis (ATCC 19296) [4, 8]: 0 mm; Inhibition zone size, Nocardia abscessus (BAA 279) [5, 8]: 16 mm; Inhibition zone size, Corynebacterium diphtheriae (ATCC 27010) [6, 8]: 33 mm |
